Read-outs that look alike come from different tables or passages of the source.
Legend:
[1] = tested on: MCF7 human breast cancer cell line; assay: MTT assay of MCF7 cells; type: cell-based; conditions: Homo sapiens, media containing 1% fetal bovine serum
Method: (§1) MDA-MB-231 and MCF7 cells were plated at a density of 8×10^3 cells/well and 10^4 cells/well in 96-well culture plates, respectively. The compounds were fed in serum free media containing 5% and 1% fetal bovine serum for MDA-MB-231 and MCF7 cells, respectively.

[2] = tested on: MDA-MB-231 human breast cancer cell line; assay: MTT assay of MDA-MB-231 cells; type: cell-based; conditions: Homo sapiens, media containing 5% fetal bovine serum
Method: as §1

[3] = tested on: MDA-MB-231 human breast cancer cells; assay: Wound-healing assay (cell migration); type: cell-based; conditions: Homo sapiens; for IC50: MDA-MB-231, wound-healing assay, dose response, read-out: IC50 antimigratory activity; for inhibition at 5 µM: MDA-MB-231, 24 h, wound-healing assay
Method: The highly metastatic human breast cancer MDA-MB-231 cells were cultured in RPMI 1640 medium containing 10 mM HEPES, 4 mM L-glutamine, 10% fetal bovine serum, penicillin (100 IU/mL), and streptomycin (50 μg/mL), and grown in a 5% CO2 atmosphere at 37° C. Cells were plated onto sterile 24-well and allowed to recover for a confluent cell monolayer formed in each well (>95% confluence). Wounds were then inflicted to each cell monolayer using a sterile 200 μL pipette tip. Media were removed, cells monolayers were washed twice with PBS, and then fresh media containing test compounds were added to each well. Test compounds were prepared in DMSO at 5 μM concentration and added to the plates, each in triplicate using DMSO as negative control. The incubation was carried out for 24 h under serum-starved conditions, after which media was removed and cells were fixed and stained using a staining composition sold under the trade name Diff Quick (Dade Behring Diagnostics, Aguada, Puerto Rico). The stain comprised a fixative reagent containing 1.8 mg/L triarylmethane dye in methyl alcohol; a first solution of 1 g/L xanthene dye, buffer, and sodium azide (0.01%) as preservative; and a second solution of 1.25 g/L Thiazine dye mixture (0.625 g/L azure A and 0.625 g/L methylene blue) and buffer. The number of cells migrated on the scratched wound were counted under the microscope in three or more randomly selected fields (magnification: 400×). Final results are expressed as mean±SEM per 400× field. The wound-healing assay is a simple method for the study of directional cell migration in vitro.
Compounds were tested for their ability to inhibit the migration of the highly metastatic MDA-MB-231 human breast cancer cells in the wound-healing assay using the procedure described above. Compounds 6, 10, 12, 13, 24, 26, 27, and 29 inhibited the migration of more than 50% of the human breast cancer cells MDA-MB-231 in the wound healing assay at 5 μM dose. […] The antimigratory activity of tocotrienols may be enhanced by a terminal aromatic functionality. The presence of electron withdrawing group, such as nitro in Compound 29, may eliminate the antiproliferative activity yet retain the antimigratory activity of the compound. While the electron donating groups, such as OH and OMe found in Compounds 23 and 26, respectively, retained both antiproliferative and antimigratory activities.
Utilizing similar procedures follow-up testing was conducted on a variety of compounds using a range of compound concentrations. The results of follow-up antimigratory testing are shown in FIG. 35B and Table III below with IC50 values calculated using statistical software.

[4] = tested on: MCF 10A non-tumorigenic mammary epithelial cells; assay: MTT assay of MCF10A cells; type: cell-based, human; conditions: for IC50: Homo sapiens; for Selectivity index: IC50 for MCF 10A divided by IC50 for +SA cell line
Method: MCF 10A (ATCC cat # CRL-10317) normal human non-tumorigenic mammary epithelial cells were maintained in serum-free defined medium consisting of Dulbecco's modified Eagle's medium (DMEM)/F12 containing 5% horse serum, 1% penicillin/streptomycin, 0.5 μg/mL hydrocortisone, 100 ng/mL cholera toxin, 10 μg/mL insulin, and 20 ng/mL epidermal growth factor (rhEGF). For subculturing, cells were rinsed twice with sterile Ca2+ and Mg2+-free phosphate buffered saline (PBS) and incubated in 0.25% trypsin containing 0.025% EDTA in PBS for 5 min at 37° C. The released cells were centrifuged, re-suspended in fresh media and counted using a hemocytometer. For testing, MCF 10A cells were plated at a density of 10×10^4 cells/well. A stock solution of the compounds was prepared in DMSO. DMSO was added to all treatment media such that the final DMSO concentration was the same in all treatment groups within a given experiment and was always less than 0.1%. The compounds were fed in serum free media. MCF10A mammary epithelial cell's viable number was determined by MTT colorimetric assay. […] IC50 values were calculated by non-linear regression using statistical software. The selectivity index indicated in the table represents the IC50 value for the MCF 10A cell line divided by the IC50 value for the +SA cell line.

[5] = MCF-10A, MCF10A cells, Table II, non-linear regression, read-out: MCF10A (IC50)
[6] = MCF 10A non-tumorigenic cells, Table I, read-out: IC50 MCF 10A

| SMILES | IC50 [1] [µM] | IC50 [2] [µM] | IC50 [3] [µM] | IC50 [4, 5] [µM] | IC50 [4, 6] [µM] | Selectivity index [4] | inhibition at 5 µM [3] [%] |
| --- | --- | --- | --- | --- | --- | --- | --- |
| CC(C)=CCC/C(C)=C/CC/C(C)=C/CC[C@]1(C)CCc2c3c(c(C)c(C)c2O1)OCN(CCCCO)C3 [Compound 35, 4-((R)-5,6,8-trimethyl-8-((3E,7E)-4,8,12-trimethyltrideca-3,7,11-trienyl)-9,10-dihydrochromeno[5,6-e][1,3]oxazin-2(1H,3H,8H)-yl)butan-1-ol] | > 20 | 13.8 | 10.7 |  |  |  |  |
| CC(C)=CCC/C(C)=C/CC/C(C)=C/CC[C@]1(C)CCc2c3c(c(C)c(C)c2O1)OCN(CCCCCCCCO)C3 [Compound 39, 8-((R)-5,6,8-trimethyl-8-((3E,7E)-4,8,12-trimethyltrideca-3,7,11-trienyl)-9,10-dihydrochromeno[5,6-e][1,3]oxazin-2(1H,3H,8H)-yl)octan-1-ol] | > 20 | > 20 | 4.7 | 2 | 2 | 1.43 |  |
| CC(C)=CCC/C(C)=C/CC/C(C)=C/CC[C@]1(C)CCc2c3c(cc(C)c2O1)OCN(CCCCCCCCCCO)C3 [Compound 42, 10-((R)-6,8-dimethyl-8-((3E,7E)-4,8,12-trimethyltrideca-3,7,11-trienyl)-9,10-dihydrochromeno[5,6-e][1,3]oxazin-2(1H,3H,8H)-yl)decan-1-ol] | 4.6 | 12.4 | 7.2 |  |  |  |  |
| CC(C)=CCC/C(C)=C/CC/C(C)=C/CC[C@]1(C)CCc2c3c(cc(C)c2O1)OCN(CCc1ccc(O)cc1)C3 [Compound 27, 4-(2-((R)-6,8-dimethyl-8-((3E,7E)-4,8,12-trimethyltrideca-3,7,11-trienyl)-9,10-dihydrochromeno[5,6-e][1,3]oxazin-2(1H,3H,8H)-yl)ethyl)phenol] | 18.2 | > 5 | 2.4 | 1.9 | 1.9 | 2.09 | > 50 |
| CC(C)=CCC/C(C)=C/CC/C(C)=C/CC[C@]1(C)CCc2c3c(c(C)c(C)c2O1)OCN(CCCCCCCCCCCCO)C3 [Compound 43, 12-((R)-5,6,8-trimethyl-8-((3E,7E)-4,8,12-trimethyltrideca-3,7,11-trienyl)-9,10-dihydrochromeno[5,6-e][1,3]oxazin-2(1H,3H,8H)-yl)dodecan-1-ol] | > 20 | > 50 |  |  |  |  |  |
| CC(C)=CCC/C(C)=C/CC/C(C)=C/CC[C@]1(C)CCc2c3c(c(C)c(C)c2O1)OCN(CCCCCCO)C3 [Compound 37, 6-((R)-5,6,8-trimethyl-8-((3E,7E)-4,8,12-trimethyltrideca-3,7,11-trienyl)-9,10-dihydrochromeno[5,6-e][1,3]oxazin-2(1H,3H,8H)-yl)hexan-1-ol] | > 20 | > 10 |  |  |  |  |  |
| CC(C)=CCC/C(C)=C/CC/C(C)=C/CC[C@]1(C)CCc2c3c(cc(C)c2O1)OCN(CCCCCCCCCCCCO)C3 [Compound 44, 12-((R)-6,8-dimethyl-8-((3E,7E)-4,8,12-trimethyltrideca-3,7,11-trienyl)-9,10-dihydrochromeno[5,6-e][1,3]oxazin-2(1H,3H,8H)-yl)dodecan-1-ol] | > 20 | > 50 |  |  |  |  |  |
| CC(C)=CCC/C(C)=C/CC/C(C)=C/CC[C@]1(C)CCc2c3c(cc(C)c2O1)OCN(CCCCCO)C3 [Compound 18, 5-((R)-6,8-dimethyl-8-((3E,7E)-4,8,12-trimethyltrideca-3,7,11-trienyl)-9,10-dihydrochromeno[5,6-e][1,3]oxazin-2(1H,3H,8H)-yl)pentan-1-ol] | 9.1 | 9 |  | 4.6 | 4.6 | 6.57 |  |
| CC(C)=CCC/C(C)=C/CC/C(C)=C/CC[C@]1(C)CCc2c3c(c(C)c(C)c2O1)OCN(CCCO)C3 [Compound 12, 3-((R)-5,6,8-trimethyl-8-((3E,7E)-4,8,12-trimethyltrideca-3,7,11-trienyl)-9,10-dihydrochromeno[5,6-e][1,3]oxazin-2(1H,3H,8H)-yl)propan-1-ol] | > 20 | 9.6 | 8.1 |  |  |  | > 50 |
| COc1ccc(CCN2COc3cc(C)c4c(c3C2)CC[C@@](C)(CC/C=C(\C)CC/C=C(\C)CCC=C(C)C)O4)cc1OC [Compound 24, (R)-2-(3,4-dimethoxyphenethyl)-6,8-dimethyl-8-((3E,7E)-4,8,12-trimethyltrideca-3,7,11-trienyl)-1,2,3,8,9,10-hexahydrochromeno[5,6-e][1,3]oxazine] |  |  |  |  |  |  | > 50 |
| CC(C)=CCC/C(C)=C/CC/C(C)=C/CC[C@]1(C)CCc2c3c(cc(C)c2O1)OCN(CCO)C3 [Compound 10, 2-((R)-6,8-dimethyl-8-((3E,7E)-4,8,12-trimethyltrideca-3,7,11-trienyl)-9,10-dihydrochromeno[5,6-e][1,3]oxazin-2(1H,3H,8H)-yl)ethanol] | 6 | > 5 | 1.3 |  | 3.1 |  | > 50 |
| CC(C)=CCC/C(C)=C/CC/C(C)=C/CC[C@]1(C)CCc2c3c(c(C)c(C)c2O1)OCN(CCCCCCCCCCO)C3 [Compound 41, 10-((R)-5,6,8-trimethyl-8-((3E,7E)-4,8,12-trimethyltrideca-3,7,11-trienyl)-9,10-dihydrochromeno[5,6-e][1,3]oxazin-2(1H,3H,8H)-yl)decan-1-ol] | 19.4 | 15.7 |  |  |  |  |  |

— US9115145B2, “Tocotrienol derivatives and associated methods” (FIRST TECH INTERNATIONAL LIMITED, priority 2011, dated 2015)
